US5889020A, “Treatment of normotensive glaucoma with angiotensin II antagonists” (CIBA Vision Corporation, priority 1994, dated 1999)

Columns and labels:
ciliary artery = experiment: Ciliary artery contraction, myograph method (tissue ring contracted with angiotensin II); parameters: species or system pig
From the text: For the myographic determinations, a short segment (7-8 mm) of the ciliary arteries of fresh eyes, e.g. pig's eyes, is dissected and cut into small rings of thickness 2 mm under a microscope (cf. for this K. Yao et al. Invest. Ophthalmaol. Vis. Sci. 32, 1791-1798(1991) and M. J. Mulvany, W. Halpern Circ. res. 41, 19-26(1977)). During the preparation, the tissue is immersed in modified Krebs-Ringer bicarbonate solution. These rings (diameter about 200-400 μm) are installed in the myograph system without delay. Such a tissue ring is stretched using two tungsten wires (diameters 30 and 80 μm), the wires being passed through the lumen. One wire is connected to the power transmission, the other to a micromanipulator for adjustment of muscle length. The tissue ring is immersed in a control solution during the experiment (37°; 95% O2; 5% CO2; pH=7.4) and equilibrated for 45 minutes before testing.
The tissue ring is stretched stepwise and at the same time 100 mM KCl is added in each case. The optimum passive tension is then defined as the tension at which the contraction with 100 mM KCl is greatest. For ciliary arteries, an averaged value for the tension of 977 mg±60 mg is found. The active residual tone of this tissue is defmed as the difference between the optimum passive tension and the tension after a maximum relaxation with 10^-6 molar bradykinin. The corresponding tension is 174 mg±38 mg. In all subsequent experiments, the abovementioned tissue rings are slowly stretched at 100 mg intervals until the optimum is reached.
Before the actual experiment, the endothelial function of such a tissue ring is checked for intactness. The tissue rings are challenged to contract by using 3. 10^-7 molar serotonin solution and in the experimental procedure described above. Thereafter it is checked whether a complete relaxation of the contracted tissue ring occurs with 3. 10^-7 molar bradykinin solution. If this condition is fulfilled, the tissue is held to be intact.
Determination of the ciliary artery contraction using the myograph method
After it was verified as described above that the endothelial functions of a tissue ring of a ciliary artery are intact, the tissue ring preparation is incubated (contracted) with 10^-7 M angiotensin II, and then relaxed with various doses of the angiotensin II antagonist valsartan.

[1] = system: perfused isolated pig's eye; experiment: Ophthalmic flow in the perfused isolated pig's eye
Method: For the perfusion method on the isolated pig's eye, the fatty tissue which surrounds the extraocular muscles is carefully removed. During this preparation, the ocular globe is surrounded with modified Krebs-Ringer bicarbonate solution at 4° C. The ocular globe is then cannulated under the microscope using a polyethylene cannula (600 μm diameter), namely via the common ophthalmic artery.
Following this preparation, the ocular globe is connected via the polyethylene cannula to a Langendorff perfusion system, and in this way supplied at the latest 1 hour after the start of preparation with a filtered and oxygenated Krebs solution which contains 0.5% albumin.
The catheterization of the common ophthalmic artery guarantees the complete perfusion both of the choroidal and of the retinal tissue and of the small extraocular muscular arteries. The perfused ocular globe is immersed in a thermostated (37° C.) control bath with a glass jacket with the cornea pointed downwards. The overflow rate (ml/min) in the bath corresponds to the ophthalmic flow. Before testing a composition, the ocular globe is equilibrated for 20 minutes. In a control experiment, it is shown that the ophthalmic flow in the experimental procedure selected remains constant for about 120 minutes after the start of the perfusion. All tests are therefore carried out within this time frame.
A perfused isolated pig's eye is first treated as described above with a control solution and then with a solution comprising angiotensin II (10^-6 M). After the determination of the angiotensin II effect, valsartan (10^-5 M) is additionally added on top of the above exposure. The relative ophthalmic flow rate resulting in this way is shown below.

Row | Compound | Relative contraction in comparison to 100 mM KCl (ciliary artery; ciliary artery ring contracted with 10^-7 M angiotensin II, valsartan 10^-5 M) | Relative contraction in comparison to 100 mM KCl (ciliary artery; ciliary artery ring contracted with 10^-7 M angiotensin II, valsartan 10^-6 M) | Relative contraction in comparison to 100 mM KCl (ciliary artery; ciliary artery ring contracted with 10^-7 M angiotensin II, valsartan 10^-7 M) | Relative contraction in comparison to 100 mM KCl (ciliary artery; ciliary artery ring contracted with 10^-7 M angiotensin II, valsartan 10^-8 M) | Relative contraction in comparison to 100 mM KCl (ciliary artery; ciliary artery ring contracted with 10^-7 M angiotensin II, valsartan 10^-9 M) | Contracting effect of angiotensin II on the ciliary artery (ciliary artery; valsartan added after 10^-7 M angiotensin II) | Decrease in the relative ophthalmic flow ([1]; angiotensin II 10^-6 M plus valsartan 10^-5 M) | Blood flow-decreasing action of angiotensin II ([1]; valsartan 10^-5 M on top of angiotensin II 10^-6 M) | Relative contraction in comparison to 100 mM KCl (ciliary artery; 10^-7 M angiotensin II alone, no valsartan (pure angiotensin II effect)) | Decrease in the relative ophthalmic flow ([1]; angiotensin II 10^-6 M alone)
1 | CCCCC(=O)N(Cc1ccc(-c2ccccc2-c2nn[nH]n2)cc1)[C@H](C(=O)O)C(C)C [valsartan] | 0.9 ± 0.45% | 0.93 ± 0.4% | 5.15 ± 1.6% | 8.1 ± 1.5% | 18.7 ± 2.2% | quantitatively abolished | 6.82 ± 3.02% | strongly reduced |  | 
2 | Angiotensin II: contracting agonist used to contract the ciliary artery and decrease ophthalmic flow (DRVYIHPF; Angiotensin-2; UniProt P01019 25-32, looked up) |  |  |  |  |  |  |  |  | 27.9 ± 8.7% | 24.5 ± 3.05%
